# How the values were obtained:
# [1] = rodent and nonrodent species; cited from earlier work
# [2] = tested on: patients with relapsed or refractory acute myeloid leukemia (R/R AML); assay: Phase 1b/2 study (NCT03303339) of onvansertib in combination with decitabine; type: in vivo; details: oral, days 1 through 5, in combination with decitabine 20 mg/m^2 intravenously
# Description: The terms “complete remission” or “complete recovery” as used herein can refer to the absence of extramedullary disease (e.g., leukemic cell aggregates outside of bone marrow), <5% blasts in the bone marrow, absence of circulating blasts and blasts with Auer rods (e.g., inclusion bodies), and platelets≥100×10^9/L and neutrophils≥1.0×10^9/L. The term “complete remission with incomplete hematologic recovery” can refer to all CR criteria except for residual neutropenia (neutrophils<1.0×10^9/L) or thrombocytopenia (platelets<100×10^9/L). The term “morphologic leukemia free state” (MFLS) can refer to <5% blasts in the bone marrow with no blasts with Auer rods and no extramedullary disease. The terms “partial response” or “partial remission” can refer to the presence of all hematologic criteria of CR, decrease of bone marrow blast percentage to 5% to 25%, and/or decrease of pretreatment bone marrow blast percentage by at least 50%. The term “Bone marrow response” (BMR) can refer to at least 50% decrease in bone marrow blast from baseline. In some embodiments, the term “overall response rate” (ORR) can refer to the combined CR, CRi, MFLS, and PR. In some embodiments a combined CR/CRi value is reported. […]
# [3] = tested on: cancer cell lines; details: cited from earlier work
# [4] = tested on: xenograft tumor; details: well tolerated doses, oral administration; cited from earlier work
# [5] = in vivo; cited from earlier work
# [6] = tested on: disseminated model of AML; details: combination therapy with cytarabine; cited from earlier work
# [7] = tested on: HT29 human colon adenocarcinoma xenografts; details: combination with irinotecan compared to each agent alone; cited from earlier work
# [8] = tested on: cell lines, both from solid as well as hematologic tumors; details: large number of cell lines; cited from earlier work
# [9] = molecular target: PLK1 (Homo sapiens, UniProt P53350); details: among a panel of 296 kinases, including other PLK members; cited from earlier work
# [10] = tested on: adult subjects with advanced/metastatic solid tumors; details: cited from earlier work
# Sequence of PLK1 (P53350 whole entry): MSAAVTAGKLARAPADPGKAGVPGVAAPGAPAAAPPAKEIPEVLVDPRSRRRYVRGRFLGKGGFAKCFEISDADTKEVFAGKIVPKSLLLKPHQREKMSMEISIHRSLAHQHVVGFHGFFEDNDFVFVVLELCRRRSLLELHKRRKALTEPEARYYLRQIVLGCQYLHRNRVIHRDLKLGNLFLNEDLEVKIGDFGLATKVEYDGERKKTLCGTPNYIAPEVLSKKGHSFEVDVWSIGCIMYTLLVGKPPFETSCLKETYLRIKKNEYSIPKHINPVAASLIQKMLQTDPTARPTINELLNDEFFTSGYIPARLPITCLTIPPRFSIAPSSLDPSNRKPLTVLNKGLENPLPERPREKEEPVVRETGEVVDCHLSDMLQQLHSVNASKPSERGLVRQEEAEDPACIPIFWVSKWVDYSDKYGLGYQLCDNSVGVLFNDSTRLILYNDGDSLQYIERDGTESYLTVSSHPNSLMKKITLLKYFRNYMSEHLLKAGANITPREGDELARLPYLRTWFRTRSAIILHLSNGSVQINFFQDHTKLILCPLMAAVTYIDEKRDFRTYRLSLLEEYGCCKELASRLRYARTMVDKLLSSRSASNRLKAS
structure (smiles),measurement,setting,value
"CN1CCN(c2ccc(OC(F)(F)F)c(Nc3ncc4c(n3)-c3c(c(C(N)=O)nn3CCO)CC4)c2)CC1 [onvansertib, 1-(2-hydroxyethyl)-8-{[5-(4-methylpiperazin-1-yl)-2-(trifluoromethoxy)phenyl]amino}-4,5-dihydro-1H-pyrazolo[4,3-h] quinazoline-3-carboxamide]",oral bioavailability,[1],good oral bioavailability
same,maximum tolerated dose,[2],60 mg/m^2
same,effect on cell cycle,[3],potently causes a mitotic cell-cycle arrest followed by apoptosis
same,xenograft tumor growth,[4],inhibits xenograft tumor growth
same,half-life,[5],about 24 hours
same,survival of animals,[6],prolonged survival
same,tumor regression,[7],enhanced tumor regression
same,potency in proliferation assays,[8],low nanomolar activity
same,specificity for PLK1,[9],high specificity
same,recommended phase 2 dose,[10]; advanced/metastatic solid tumors,24 mg/m^2
same,primary dose-limiting toxicities,[10]; in vivo,neutropenia and thrombocytopenia
same,patients with stable disease,[10]; of 16 evaluable patients,5 patients
same,recovery of hematologic toxicities,[10]; reversible,≤ 3 weeks

# — patent US12637718B2, “Predictive biomarkers for onvansertib treatment” (Cardiff Oncology, Inc., priority 2021, dated 2026)
